Assay [1] addresses T1, GST-human KRas166 (G12V) GPPNHP (Homo sapiens, UniProt P01116, G12V).
T1 construct: made in house; host or cells: E. coli C41(DE3)
As to the kind of experiment: KRas small-molecule screening by SPR (BIACORE T200). The note with it: compound at final concentration of 100 uM; immobilised GST-KRAS166 (G12V) GPPNHP, GST reference channel. The assay is classed as binding. How it is done: For SPR assays pGEX-KRAS(G12V) plasmid was transformed into E. coli C41(DE3). Bacterial cells were cultured at 37° C. to an OD600 of 0.6 and induced with IPTG (final 0.1 mM) at 18° C. overnight. The GST fusion proteins were extracted from bacteria pellets after cell disruption in 140 mM NaCl, 2.7 mM KCl, […], 1.8 mM KH2PO4, 1 mM EDTA, 2 mM MgCl2 pH 7.4 and purified by glutathione-sepharose column chromatography (GE Healthcare), eluting with 50 mM Tris-HCl pH8.0, 10 mM reduced glutathione, 1 mM DTT, 2 mM MgC2. The eluted proteins were dialysed against 50 mM Tris-HCl pH8.0, 1 mM DTT, 2 mM MgCl2 and concentrated to 10 mg/ml using a Biomax-30 […]-15 centrifugal filter device (Millipore). Purified KRAS protein was loaded with GPPNHP as described elsewhere (Pacold et al., 2000). Loaded protein was then purified by gel filtration on a HiLoad Superdex-75 HR column (GE Healthcare) in 1×PBS pH7.4, 5 mM MgCl2 and concentrated for storage.
To a previously immobilized CM5 chip (GE Healthcare BR-1005-30) with anti GST antibody via amine coupling method, GST in channel 1 and GST-human KRas166 (G12V) GPPNHP in channel 2 were immobilised. GST was immobilised between 2,000 and 5,000 Response units. KRAS166 (G12V) was immobilized between 10,000 to 15,000 Response Units.
In a 96 well plate, compounds were diluted in […], 5 mM MgCl2 and 5% DMSO Buffer to a final concentration of 100 uM. DCAI was used as positive control. Experiment also included a solvent correction curve for 5% DMSO. Screening and evaluation of the protein immobilization and the compounds screening was done accordingly to the BIACORE T200 control and evaluation software.
Protein immobilisation: 10,000 RU; average fragment 300 Da in size. Rmax=(MWA/MWL)×RL×SM MWA is the molecular weight of the analyte in Da MWL is the molecular weight of the ligand in Da RL is the immobilization level in RU SM is the molar stoichiometry (assume 1:1) Rmax=300/47,500×10,000×1 Rmax=63 RU. Cell Viability Assay protocols

In assay [2] the test system is H358 cells (ATCC CRL-5807). The experiment in a line: Cell viability assay (CellTiter-Glo), H358 cells. The format is cell-based. The note with it: Homo sapiens, NCI-H358, 48 h incubation, first value of the cell, read-out: Cell Viability (μM) H358 (concentration that decreases cell viability by 50%). The procedure: (§1) Cells (A549 ATCC CCL-185) are cultured in Dulbecco's Modified Eagle's Medium plus 10% foetal calf serum and 2 mM L-glutamine at 37° C., 5% CO2. Cells are plated onto white clear bottom 96-well plates (5000 cells/well in 200 μl media) and left to adhere overnight at 37° C., 5% CO2. Next day, test compound (1 μl at 200× concentration in 100% DMSO) is added to give final test compound concentration 1× in 0.5% DMSO. After 48 h of incubation at 37° C., 5% CO2, 20 μl CellTiter-Glo reagent (Promega G7572) is added into each well. Plates are incubated at room temperature with shaking for 30 min and then luminescence is read using a PheraStar plate reader. The concentration of compounds that decrease cell viability by 50% is calculated from dose response curves generated using Dotmatics data analysis software.
In the H358 cell assay, cells (ATCC CRL-5807) are cultured in RPM-1640 medium plus 10% foetal calf serum and 2 mM L-glutamine at 37° C., 5% CO2.

Assay [3] has as its system DLD1 cells (ATCC CCL-221). As to the kind of experiment: Cell viability assay (CellTiter-Glo), DLD1 cells. The assay is classed as cell-based. The conditions noted are these: Homo sapiens, DLD-1 cells, 48 h incubation, second value of the cell, read-out: Cell Viability (μM) DLD-1 (concentration that decreases cell viability by 50%). How it is done: as §1
In the DLD1 cell assay, cells (ATCC CCL-221) are cultured in RPMI-1640 medium plus 10% foetal calf serum and 2 mM L-glutamine at 37° C., 5% CO2.
On the technique in general: In ATP-based viability assays light output follows the ATP content of the culture.

The record followed here is patent US11724999B2, “Inhibitors of RAS-effector protein interactions” (Oxford University Innovation Limited, priority 2018, dated 2023).

Molecules are shown by their SMILES.

For `O=C1CCCN1CC(NC[C@@H]1COc2ccc(OCc3ccccc3)cc2O1)c1ccccc1` (stereo partly drawn) [Example 47, 1-{2-[((R)-7-Benzyloxy-2,3-dihydro-benzo[1,4]dioxin-2-ylmethyl)-amino]-2-phenyl-ethyl}-pyrrolidin-2-one], the “SPR Response Units” value in assay [1] came out at 48 Response Units. Moreover, the IC50 in assay [2] came out at 35 µM; in assay [3] it was 15.7 µM.

Regarding `CN1CCN(Cc2ccc(C(=O)NC[C@@H]3COc4ccc(OCc5ccc(Cl)cc5)cc4O3)o2)CC1` [Example 24, 5-(4-Methyl-piperazin-1-ylmethyl)-furan-2-carboxylic acid [(R)-7-(4-chloro-benzyloxy)-2,3-dihydro-benzo[1,4]dioxin-2-ylmethyl]-amide], the “SPR Response Units” value in assay [1] was 226 Response Units. In addition, the IC50 amounted to 49 µM in assay [2] and 2.5 µM in assay [3].

For the compound `CN(C)CCCOc1ccc(CN(C[C@@H]2COc3ccc(OCc4ccccc4)cc3O2)C(=O)c2ncco2)cc1` [Example 40, Oxazole-2-carboxylic acid ((R)-7-benzyloxy-2,3-dihydro-benzo[1,4]dioxin-2-ylmethyl)-[4-(3-dimethylamino-propoxy)-benzyl]-amide], the “SPR Response Units” value in assay [1] is given as 173 Response Units. Besides, the results for the IC50 in assay [2] and in assay [3] were 14 µM and 2 µM, respectively.

With `CN1CCC(CNC[C@@H]2COc3ccc(OCc4ccccc4)cc3O2)CC1` [Example 46, ((R)-7-Benzyloxy-2,3-dihydro-benzo[1,4]dioxin-2-ylmethyl)-(1-methyl-piperidin-4-ylmethyl)-amine], in assay [1], the “SPR Response Units” value turned out to be 75 Response Units. Besides, the IC50 in assay [2] came out at 16 µM; in assay [3], 2 µM.

On to `CN(C)CC(=O)N[C@H]1CC[C@@H](NC[C@@H]2COc3ccc(OCc4ccccc4)cc3O2)CC1` [Example 50, N-{4-[((R)-7-Benzyloxy-2,3-dihydro-benzo[1,4]dioxin-2-ylmethyl)-amino]-cyclohexyl}-2-dimethylamino-acetamide], for which the “SPR Response Units” value in assay [1] stood at 70 Response Units. For the same compound, the IC50 in assay [2] was found to be 28 µM; in assay [3], 5 µM.

Take `CN1CCN(Cc2cnc(C(=O)NC[C@@H]3COc4ccc(OCc5ccccc5)cc4O3)o2)CC1` [Example 4, 5-(4-Methyl-piperazin-1-ylmethyl)-oxazole-2-carboxylic acid ((R)-7-benzyloxy-2,3-dihydro-benzo[1,4]dioxin-2-ylmethyl)-amide]: the “SPR Response Units” value in assay [1] is given as 66 Response Units. The results for the IC50 in assay [2] and in assay [3] were 57 µM and 12 µM, respectively.

`COc1ccc(COc2ccc3c(c2)O[C@H](CNC(=O)c2ccc(CN4CCN(C)CC4)o2)CO3)cc1` [Example 22, 5-(4-Methyl-piperazin-1-ylmethyl)-furan-2-carboxylic acid [(R)-7-(4-methoxy-benzyloxy)-2,3-dihydro-benzo[1,4]dioxin-2-ylmethyl]-amide]: the “SPR Response Units” value in assay [1] was 96 Response Units. Also, the values for the IC50 in assay [2] and in assay [3] were 46 µM and 12 µM, respectively.

For the compound `CN1CCC(C(=O)NC[C@@H]2COc3ccc(OCc4ccc(Cl)cc4)cc3O2)CC1` [Example 18, 1-Methyl-piperidine-4-carboxylic acid [(R)-7-(4-chloro-benzyloxy)-2,3-dihydro-benzo[1,4]dioxin-2-ylmethyl]-amide], in assay [1], the “SPR Response Units” value was found to be 61 Response Units. Further, the IC50 in assay [2] worked out at 10 µM; in assay [3], 5.4 µM.

Regarding `O=c1ccccn1CCN1CCN(C[C@@H]2COc3ccc(OCc4ccccc4)cc3O2)CC1` [Example 52, 1-{2-[4-((R)-7-Benzyloxy-2,3-dihydro-benzo[1,4]dioxin-2-ylmethyl)-piperazin-1-yl]-ethyl}-1H-pyridin-2-one], the “SPR Response Units” value in assay [1] is 70 Response Units. For the same compound, the results for the IC50 in assay [2] and in assay [3] were more than 100 µM and 15 µM, respectively.
